Biological target: Fibroblast growth factor receptor 3 (Homo sapiens, UniProt P22607)
Assay: Inhibition of N-terminal GST-fused human FGFR3 cytoplasmic domain (436 to 806(end) amino acids) using CSKtide substrate incubated for 90 mins

Fibroblast growth factor receptor 3, sequence (P22607 whole entry, the tested form may be a part): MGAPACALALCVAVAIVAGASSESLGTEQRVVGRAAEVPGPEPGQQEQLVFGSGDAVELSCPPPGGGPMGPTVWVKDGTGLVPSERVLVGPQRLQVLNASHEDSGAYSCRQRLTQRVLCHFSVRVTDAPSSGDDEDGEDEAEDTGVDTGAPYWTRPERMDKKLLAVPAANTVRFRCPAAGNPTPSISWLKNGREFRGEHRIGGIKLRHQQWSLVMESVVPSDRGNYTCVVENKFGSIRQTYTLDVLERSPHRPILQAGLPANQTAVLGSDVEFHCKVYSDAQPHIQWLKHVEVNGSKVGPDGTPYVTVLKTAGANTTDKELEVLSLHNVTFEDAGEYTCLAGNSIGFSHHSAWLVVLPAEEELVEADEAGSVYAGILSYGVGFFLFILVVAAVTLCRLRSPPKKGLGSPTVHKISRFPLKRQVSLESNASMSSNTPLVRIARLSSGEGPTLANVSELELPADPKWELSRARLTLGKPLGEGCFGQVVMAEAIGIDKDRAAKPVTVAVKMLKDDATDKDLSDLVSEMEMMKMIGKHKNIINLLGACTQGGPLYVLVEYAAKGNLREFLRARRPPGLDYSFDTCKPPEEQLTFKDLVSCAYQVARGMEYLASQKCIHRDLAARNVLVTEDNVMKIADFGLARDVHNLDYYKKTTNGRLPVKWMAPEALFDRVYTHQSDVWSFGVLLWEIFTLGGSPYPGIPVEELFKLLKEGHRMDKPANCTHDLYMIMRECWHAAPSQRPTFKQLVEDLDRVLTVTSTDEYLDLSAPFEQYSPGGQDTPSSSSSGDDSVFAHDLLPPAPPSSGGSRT

IC50: 150 nM
SMILES: C=CC(=O)Nc1cccc(C)c1Nc1ncc2cc(-c3c(Cl)c(OC)cc(OC)c3Cl)ccc2n1

Source: ChEMBL document CHEMBL4400505, “Fibroblast Growth Factor Receptor 4 (FGFR4) Selective Inhibitors as Hepatocellular Carcinoma Therapy: Advances and Prospects” (J Med Chem, 2019)
